pEC50: −log10 of the molar value. Where two headings read alike, the source gives them in different places.
Experiments:
Format in all cases: cell-based
human GPR40 [1] = target: T1, human GPR40 (Homo sapiens, UniProt O14842); experiment: FLIPR intracellular calcium response in HEK-293 cells transiently expressing GPR40; set-up: expressed in transfected cells; host or cells: HEK-293 (transient); details: GPR40 stimulation
From the text: The Fluorometric Imaging Plate Reader (FLIPR™, Molecular Devices, UK) measures intracellular fluorescense in multi-well microplates. Where a GPCR couples to a calcium signalling pathway, the FLIPR system can be used with cells expressing the G-protein coupled receptor and containing calcium-sensitive fluorescent dyes, to monitor the intracellular calcium flux that occurs after activation of the G-coupled receptor. See, e.g., Kirk et al., J. Biomolecular Screening, 1:75 (1996).
The assays utilized a G-protein cocktail (+GPC) that contained chimeric and promiscuous G-proteins, as is known in the art of screening orphan G-protein coupled receptors.

[2] = system: CHO cells containing GAL4/Elk1-luciferase reporter constructs; experiment: GAL4/Elk-1-luciferase reporter in host CHO cells (reporter only), with and without pertussis toxin; details: 1 ug/ml pertussis toxin 16 hours
From the text: (§1) To further test the coupling of GPR40 to Gαi/Gαq a Gal4/Elk-1 reporter was used. A stable, clonal reporter line was created by transfecting CHO cells with a plasmid that contains an expression construct for GAL4/Elk-1 and a GAL4-luciferase reporter construct. A similar reporter system can now be purchased from Stratagene (under the trademark […]®). An expression construct for human GPR40 which contains a G418 resistance construct was transfected into the host CHO GAL4/Elk-1 reporter cell line (10 ug plasmid DNA pCR3-GPR40) via electroporation. The cell lines were selected for with 500 ug/mL G418 until all cells in the control were dead and clones were then picked. The Gal4/Elk-1 reporter can be activated through Gq or Gi. To confirm coupling via Gi, cells were treated with pertussis toxin treatment which ADP-ribosylates Gαi preventing its interaction with receptors (Bokoch et al., J. Biol. Chem 258:2072 (1983)). Pertussis toxin has no known effect on Gαq.
(§2) Host cells and those transfected with the GPR40 construct were plated in a 96-well tissue culture plate at 2000 cells/well in DMEM/F12 supplemented with 5% FBS. After 48 hours at 37° C. at 5% CO2, the cells were placed in serum-free DMEM/F12 in the presence or absence of 1 ug/ml pertussis toxin. After 16 hours at 37° C., 5% CO2 the host cells were treated with: lysophosphatidic acid (oleoyl) (LPA) which couples through GαI to activate MAP kinase (Hordijk et al., J. Biol. Chem. 269: 645 (1994)); thrombin which couples through Gαi and Gαq (Hung et al., J. Biol. Chem. 267:20831 (1992)); or 5,8,11-Eicosatriynoic acid (a GPR40 ligand), at the concentrations indicated. The host cells containing the GPR40 construct were stimulated with or 5,8,11-Eicosatriynoic acid at the concentrations indicated. Controls for lysophosphatidic acid contained 0.5% DMSO; controls for […] contained 0.05% ethanol. Luciferase activity was assayed 4 hours after treatment using a luciferase reporter gene assay kit available under the trademark LUCLITE®, as per manufacturers instructions (Packard Bioscience).

[3] = system: CHO cells expressing CRE-luciferase with no receptor; experiment: CRE-luciferase reporter in CHO cells containing reporter only (no receptor); details: 4 hours of treatment
Procedure: (§3) Specific coupling was determined in mammalian cells using transient expression of a CRE-luciferase reporter for Gαs and stable cell-lines containing Gal4/ELK-1-luciferase reporter for Gαq/Gαi. Wild-type CHO cells were co-transfected with 3×-CRE-luciferase reporter vector and various amounts of an expression vector for GPR40. The control cells were transfected with reporter vector only. The reporter gene plasmids were produced in house but similar vectors can be purchased from Stratagene ([…]®). Cells were plated in a 24 well tissue culture plate at 1×10^4 cells/well in DMEM/F12 supplemented with 5% FBS. After 72 hours at 37° C., 5% CO2, the cells were transfected using the liposomal transfection reagent sold under the trademark LIPOFECTAME® and with the following combinations of plasmids: • A-3×-CRE-Luc • B-3×-CRE-Luc+CMV-GPR40 • C-3×-CRE-Luc+CMV-Gs coupled receptor The concentration of reporter plasmid for all wells was 0.15 μg/well. Concentrations of receptor plasmids were 0.5, 1.0, 5.0, 10.0 ng/well. After 24 hrs Cells containing 1 ng/well of receptor plasmid or no DNA control and CRE-Luc reporter were treated with fatty acid or the calcitonin which is known to act through a Gs-coupled receptor (Chakraborty, Science 251: 1078 (1991)) at concentrations indicated. […]

human GPR40 [4] = target: T1, human GPR40; experiment: CRE-luciferase reporter in CHO cells co-transfected with GPR40 expression vector; set-up: expressed in transfected cells; details: CHO cells containing GPR40 and CRE-Luc reporter, 4 hours of treatment
Procedure: as §3

human GPR40 [5] = target: T1, human GPR40; experiment: GAL4/Elk-1-luciferase reporter in CHO clones transfected with human GPR40, with and without pertussis toxin; set-up: expressed in transfected cells; details: GPR40 clones, 1 ug/ml pertussis toxin
From the text: as §1, §2

[6] = FLIPR, Additional Fatty Acid Compounds, read-out: EC50 uM
[7] = FLIPR, Additional Fatty Acid Compounds, read-out: EC50
[8] = FLIPR, first of up to 3 experiments, read-out: Mean pEC50 (converted)
[9] = FLIPR, second of up to 3 experiments, read-out: Mean pEC50 (converted)
[10] = FLIPR, third experiment, read-out: Mean pEC50 (converted)
[11] = Mean pEC50 of 3 expts, FLIPR, overall mean (n = 1 or 2 where stated)
[12] = Mean pEC50, FLIPR, first of up to 3 experiments
[13] = Mean pEC50, FLIPR, second of up to 3 experiments
[14] = EC50 uM, FLIPR, Additional Fatty Acid Compounds
[15] = EC50 (M), FLIPR, Additional Fatty Acid Compounds

T1 sequence (O14842 whole entry): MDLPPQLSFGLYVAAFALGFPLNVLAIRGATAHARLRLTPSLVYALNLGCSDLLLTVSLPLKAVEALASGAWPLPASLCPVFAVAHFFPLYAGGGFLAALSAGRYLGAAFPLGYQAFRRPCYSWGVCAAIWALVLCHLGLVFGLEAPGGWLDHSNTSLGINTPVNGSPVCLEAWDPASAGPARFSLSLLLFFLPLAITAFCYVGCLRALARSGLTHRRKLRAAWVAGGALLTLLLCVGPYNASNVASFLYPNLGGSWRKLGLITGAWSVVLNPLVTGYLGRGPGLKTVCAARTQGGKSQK

| Compound | EC50 (human GPR40 [1]; [6]) [µM] | pEC50 (human GPR40 [1]; [7]) | EC50 (human GPR40 [1]; [8]) [µM] | EC50 (human GPR40 [1]; [9]) [µM] | EC50 (human GPR40 [1]; [10]) [µM] | pEC50 (human GPR40 [1]; [11]) | also measured |
| --- | --- | --- | --- | --- | --- | --- | --- |
| C#CCCCCCCCCCCCCCCCC(=O)O [17-Octadecynoic acid] | 7.6 | 5.12 |  |  |  |  |  |
| CCCCC/C=C\C/C=C\C/C=C\C/C=C\CCCC(=O)O [Arachidonic acid] | 9.1 | 5.04 | 18.2 | 12.9 | 7.24 | 4.92 |  |
| CCCCCCCCCCCCCCCCCCCCCC(=O)O [Behenic acid] |  |  |  | 49 |  | 4.30 | pEC50 (human GPR40 [1]; [12]): 4.29 |
| CCCCCCCCCC(=O)O [Capric acid] |  |  | 18.2 | 11 | 14.5 | 4.85 |  |
| CCCCCCCC(=O)O [Caprylic acid] |  |  |  |  |  | 4.42 | pEC50 (human GPR40 [1]; [12]): 4.25; pEC50 (human GPR40 [1]; [13]): 4.58 |
| CCCCC/C=C\C/C=C\C/C=C\CCCCCCC(=O)O [Dihomo-gamma-linolenic acid] | 7.2 | 5.14 |  |  |  |  |  |
| CC/C=C\C/C=C\C/C=C\C/C=C\C/C=C\CCCCCC(=O)O [Docosa-7Z,10Z,13Z,16Z,19Z-pentaenoic acid] | 4.7 | 5.33 |  |  |  |  |  |
| CC/C=C\C/C=C\C/C=C\CCCCCCCCCCCC(=O)O [Docosa-13Z,16Z,19Z-trienoic acid] | 6.8 | 5.17 |  |  |  |  |  |
| CC/C=C\C/C=C\C/C=C\C/C=C\C/C=C\CCCC(=O)O [Eicosa-5Z,8Z,11Z,14Z,17Z-pentaenoic acid] | 6.8 | 5.17 |  |  |  |  |  |
| CCCCCCCCCCC/C=C\C/C=C\CCCC(=O)O [Eicosa-5Z,8Z-dienoic acid] | 7.8 | 5.11 |  |  |  |  |  |
| CC/C=C\C/C=C\C/C=C\CCCCCCCCCC(=O)O [Eicosa-11Z,14Z,17Z-trienoic acid] | 11.2 | 4.95 |  |  |  |  |  |
| CCCCC/C=C\C/C=C\CCCCCCCCCC(=O)O [Eicosa-11Z,14Z-dienoic acid] | 10.7 | 4.97 |  |  |  |  |  |
| CCCCCCCCCCCCCCCCCCCCC(=O)O [Heneicosanoic acid] |  |  | 35.5 | 29.5 |  | 4.49 |  |
| CCCCCCCCCCCCCCCCC(=O)O [Heptadecanoic acid] |  |  | 13.8 | 10.2 | 7.76 | 4.99 |  |
| CCCCCCC(=O)O [Heptanoic acid] |  |  | 46.8 | 60.3 |  | 4.28 |  |
| CCCCCCCC/C=C\CCCCCCCC(=O)OC[C@@H](O)COP(=O)(O)O [LPA, lysophosphatidic acid (oleoyl)] |  |  |  |  |  |  | agonist-stimulated reporter activity after pertussis toxin treatment [2]: completely abolished |
| CCCCCCCCCCCC(=O)O [Lauric acid] |  |  | 17.8 | 11.7 | 8.51 | 4.92 |  |
| CCCCC/C=C\C/C=C\CCCCCCCC(=O)O [Linoleic acid] |  |  |  |  |  | 4.73 | EC50 (human GPR40 [1]; [14]): 9.5 µM; EC50 (human GPR40 [1]; [15]): 9.54 µM; pEC50 (human GPR40 [1]; [12]): 4.78; pEC50 (human GPR40 [1]; [13]): 4.68 |
| CC/C=C\C/C=C\C/C=C\CCCCCCCC(=O)O [Linolenic acid] |  |  |  |  |  | 4.90 | EC50 (human GPR40 [1]; [14]): 5.5 µM; EC50 (human GPR40 [1]; [15]): 5.5 µM; pEC50 (human GPR40 [1]; [12]): 4.93; pEC50 (human GPR40 [1]; [13]): 4.66; pEC50 (human GPR40 [1]; Mean pEC50, FLIPR, third experiment): 5.12 |
| CCCCCCCCCCCCCCCCCCC(=O)O [Nonadecanoic acid] |  |  | 26.3 | 34.7 |  | 4.52 |  |
| CCCCCCCCC(=O)O [Nonanoic acid] |  |  |  |  |  | 4.40 | pEC50 (human GPR40 [1]; [12]): 4.16; pEC50 (human GPR40 [1]; [13]): 4.63 |
| CCCCCCCCCCCCCCCC(=O)O [Palmitic acid] |  |  | 8.32 | 3.09 | 5.01 | 5.30 |  |
| CCCCCC/C=C\CCCCCCCC(=O)O [Palmitoleic acid] |  |  | 15.1 | 15.5 | 11 | 4.86 |  |
| CCCCCCCCCCCCCCC(=O)O [Pentadeconoic acid] |  |  | 10.7 | 4.37 | 6.17 | 5.18 |  |
| CCCCCCCCCCCCCCCCCC(=O)O [Stearic acid] |  |  | 20 | 16.6 | 14.1 | 4.78 |  |
| CCCCCCCCCCC(=O)O [Undecanoic acid] |  |  | 25.1 | 21.9 | 14.8 | 4.70 |  |
| CCC=CCC=CCC=CCC=CCC=CC/C=C\CCC(=O)O [cis-4,7,10,13,16,19-Docosahexaenoic acid] | 1.6 | 5.79 | 6.61 | 2.95 | 3.98 | 5.37 |  |
| calcitonin |  |  |  |  |  |  | luciferase production (CRE-luciferase) [3]: increase in luciferase production; luciferase production (CRE-luciferase) (human GPR40 [4]): increase in luciferase production |
| pertussis toxin |  |  |  |  |  |  | decrease of basal reporter activity following pertussis toxin treatment (human GPR40 [5]): up to 70% |
| thrombin |  |  |  |  |  |  | agonist-stimulated reporter activity after pertussis toxin treatment [2]: only partially attenuated |
